Data published in paper PMC11768184, “Non-Steroidal Anti-Inflammatory Drugs Are Inhibitors of the Intestinal Proton-Coupled Amino Acid Transporter (PAT1): Ibuprofen and Diclofenac Are Non-Translocated Inhibitors” (Pharmaceutics, 2025).

Columns and labels:
Assay type in all cases: cell-based
[1] = target: T1, proton-coupled amino acid transporter (hPAT1) (Homo sapiens, UniProt Q7Z2H8); assay: TEVC in hPAT1-expressing Xenopus oocytes; [3H]-proline uptake inhibition in Caco-2 cells, pH […]
T1 construct: gene SLC36A1
T1 sequence (Q7Z2H8 whole entry): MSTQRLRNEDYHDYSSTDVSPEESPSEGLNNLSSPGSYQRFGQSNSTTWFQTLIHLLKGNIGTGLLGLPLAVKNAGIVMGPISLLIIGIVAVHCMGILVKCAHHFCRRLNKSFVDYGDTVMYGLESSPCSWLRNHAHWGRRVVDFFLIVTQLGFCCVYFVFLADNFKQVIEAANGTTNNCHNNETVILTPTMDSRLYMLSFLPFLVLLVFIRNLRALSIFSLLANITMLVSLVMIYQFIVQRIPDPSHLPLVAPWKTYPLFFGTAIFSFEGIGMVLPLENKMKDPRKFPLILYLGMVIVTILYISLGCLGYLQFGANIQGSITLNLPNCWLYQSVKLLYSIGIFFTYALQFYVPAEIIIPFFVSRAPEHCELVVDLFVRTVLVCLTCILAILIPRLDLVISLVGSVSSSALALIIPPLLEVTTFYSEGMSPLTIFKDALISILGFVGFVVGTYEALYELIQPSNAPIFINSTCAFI

[2] = target: T1, proton-coupled amino acid transporter (hPAT1); assay: TEVC in hPAT1-expressing Xenopus oocytes; [3H]-proline uptake inhibition and kinetics in Caco-2 cells, pH […]
[3] = target: T1, proton-coupled amino acid transporter (hPAT1); assay: concentration-dependent inhibition of [3H]-proline uptake in Caco-2 cells, pH […]

SMILES: O=C(O)Cc1ccccc1Nc1c(Cl)cccc1Cl [diclofenac]
- IC50 [1]: 272 µM

SMILES: CC(C)Cc1ccc(C(C)C(=O)O)cc1 (racemic) [ibuprofen]
- IC50 [2]: 954 µM

SMILES: CC(C(=O)O)c1ccc(-c2ccccc2)c(F)c1 (racemic) [flurbiprofen]
- IC50 [3]: 280 µM
